Target: Tyrosine-protein kinase ABL1 (Homo sapiens, UniProt P00519)
Test: Kinase Assay: c-abl: ADP-Glo assay kit was purchased from Promega. Magnesium chloride (MgCl2), bovine serum albumin (BSA), ethylene glycol-bis(p-aminoethyl ether)-N,N,N′,N′-tetraacetic acid (EGTA), triton X-100, 1,4-dithiothreitol (DTT) and dimethyl sulfoxide (DMSO) were purchased from Sigma-Aldrich. HEPES buffer was purchased from Gibco. ABL1 kinase and Abltide were purchased from Signalchem.c-Abl kinase activity was measured by Promega's ADP-Glo™ Assay. In this assay, His-tagged recombinant human ABL1 (0.25 ng/μl) is incubated with 5 μL of compounds (0.5% DMSO), 5 μL of Abltide (0.01 μg/μl) and 5 μL of ATP (25 μM) in buffer (50 mM HEPES, 7.5; 10 mM MgCl2; 1 mM EGTA; 0.05% BSA; 0.01% Triton X-100; 2 mM DTT). The assay was started by incubating the reaction mixture in a 96-well plate at 30° C. for 30-min. After the incubation, 25 μL ADP-Glo reagent was added and the reaction was incubated at room temperature for 40-min to stop the reaction and degrade residual ATP. The ADP product was then converted to ATP by adding 50 μL per well of detection reagent. Luminescence was detected after 30-min room temperature incubation with the Molecular device I3X plate reader. The IC50 values were calculated from a series of percent inhibition values determined at a range of inhibitor concentration using software routines as implemented in the GraphPad Prism 7 software and Sigma Plot 13.0.

Sequence of Tyrosine-protein kinase ABL1 (P00519 whole entry): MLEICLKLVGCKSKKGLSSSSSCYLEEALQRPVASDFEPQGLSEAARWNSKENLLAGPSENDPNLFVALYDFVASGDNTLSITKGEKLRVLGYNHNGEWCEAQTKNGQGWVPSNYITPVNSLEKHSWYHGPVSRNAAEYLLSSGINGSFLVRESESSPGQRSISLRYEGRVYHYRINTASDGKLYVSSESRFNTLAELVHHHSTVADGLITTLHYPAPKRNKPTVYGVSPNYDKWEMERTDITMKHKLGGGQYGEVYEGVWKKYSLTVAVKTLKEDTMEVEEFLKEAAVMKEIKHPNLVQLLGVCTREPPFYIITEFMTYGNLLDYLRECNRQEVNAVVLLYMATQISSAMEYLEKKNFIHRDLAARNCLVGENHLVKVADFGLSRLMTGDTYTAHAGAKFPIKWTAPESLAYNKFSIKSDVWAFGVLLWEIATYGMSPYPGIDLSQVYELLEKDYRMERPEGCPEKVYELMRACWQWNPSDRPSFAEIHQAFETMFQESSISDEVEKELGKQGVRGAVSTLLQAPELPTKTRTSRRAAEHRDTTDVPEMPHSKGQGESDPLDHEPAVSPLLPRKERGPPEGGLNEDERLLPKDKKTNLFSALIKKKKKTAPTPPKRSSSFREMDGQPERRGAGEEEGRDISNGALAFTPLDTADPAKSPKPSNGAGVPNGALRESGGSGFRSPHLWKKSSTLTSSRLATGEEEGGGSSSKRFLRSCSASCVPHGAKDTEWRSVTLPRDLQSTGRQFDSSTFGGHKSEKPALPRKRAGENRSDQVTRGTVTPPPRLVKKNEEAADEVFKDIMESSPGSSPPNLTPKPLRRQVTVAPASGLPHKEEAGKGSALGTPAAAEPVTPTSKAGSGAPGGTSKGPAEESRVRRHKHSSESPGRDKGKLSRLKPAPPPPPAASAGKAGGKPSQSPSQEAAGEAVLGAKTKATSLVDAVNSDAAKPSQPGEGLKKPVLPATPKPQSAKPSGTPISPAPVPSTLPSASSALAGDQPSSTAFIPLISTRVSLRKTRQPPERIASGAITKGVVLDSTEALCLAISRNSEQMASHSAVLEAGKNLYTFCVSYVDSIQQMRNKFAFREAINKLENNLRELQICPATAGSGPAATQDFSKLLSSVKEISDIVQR

Row | Compound | IC50 [nM]
1 | Cc1cccc(C)c1-c1ccc2nc(NC(=O)[C@@H]3C[C@@H]3F)cn2c1 | < 10
2 | COc1ccncc1-c1ccc2nc(NC(=O)[C@@H]3C[C@@H]3F)cn2c1 | < 10
3 | Cc1c(F)cccc1-c1ccc2nc(NC(=O)C3CC3(F)F)cn2c1 (centres undefined) | < 10
4 | Cc1cc2scnc2cc1-c1ccc2nc(NC(=O)[C@@H]3C[C@@H]3F)cn2c1 | < 10

Source: ChEMBL document CHEMBL5728679, “Imidazopyridinyl compounds and use thereof for treatment of neurodegenerative disorders” (2021)
